Data: US11524012B1, “Quinolone analogs and their salts, compositions, and method for their use” (Senhwa Biosciences, Inc., priority 2018, dated 2022)

Experiment: Stability study of lyophilized Compound I with mannitol (Method A / Method B samples)
Assay type: physicochemical
Protocol: […] Each 30 mL Type I, clear glass sample vial with 20 mm Freeze Dry Stoppers (Flurotech™ coated) contained 150 mg of Compound I.
At each time point, a vial was removed from the stored condition and reconstituted with 10 mL of D5W and analyzed by HPLC method as discussed in Example 5 at 1 month, 2 months, 3 months, and/or 6 months. In Tables 18-18e, RRT matches the Compounds as shown below.
Sample Preparation—Method A: 10% Mannitol solution was prepared by weighing 200 g±1.0 g of mannitol into glass beaker, adding approximately 1500 mL of WFI (water for injection) to the beaker and stirring until mannitol was dissolved. The mannitol solution was transferred to a 2 L volumetric flask and made to volume with WFI, then poured back to the original beaker to sir and mix further. 1M HCl solution was prepared by adding 16.4 mL of HCl (37%) to a 200 mL volumetric flask containing approximately 100 mL of WFI, adding WFI to make 200 mL in volume, and inverting to mix the prepared solution.
To a tared 2 L Schott bottle containing a magnetic stirrer and wrapped in aluminum foil, 1020 g±1.0 g of the 10% mannitol solution was added. Then, 58.4 g±0.05 g of the 1M HCl solution was added to the 2 L Schott bottle and stirred for approximately 10 minutes. The solution prepared in the 2 L Schott bottle was purged with nitrogen which was continued throughout the manufacturing process. 30.22 g of Compound I (free base) was weighed then added to the 2 L Schott bottle containing 10% mannitol solution and 1 M HCl solution with continual magnetic stirring. The container used to weigh Compound I was rinsed with 3×10 mL of WFI and added to the Schott bottle. After Compound I dissolved (approximately 40 minutes), additional 650 g of WFI was added to the Schott bottle and the solution was stirred for approximately 10 minutes. The pH of the Compound I solution (in Schott bottle) was measured then adjusted to pH 4.5±0.1 using 1 M HCl solution. After each addition of 1 M HCl solution, the solution was stirred for several minutes prior to verifying the pH. Once the pH was adjusted, nitrogen purging was stopped. The pH adjusted Compound I solution was further diluted with WFI to a target weight of 2040 g±1.0 g and stirred.
The final solution (pH adjusted and diluted) was filtered (chain including PVD Fmembrane filter 0.45 μm and 0.22 μm; peristaltic filtration pump by Watson Marlow) in the Bigneat and the bottle containing the filtered solution was sealed. The filtered solution was pumped (Watson Marlow Flexicon PF6-B pump; 100 RPM) into 30 mL Schott Clear Glass vials (10.0 mL filtered solution each). The glass vials were partially stoppered with 20 mm Freeze Dry Stopper Flurotec (Daikyo Seiko) one vial at a time with sterilized utensils inside a fume hood (Envair B101+1.5R) and placed on freeze dryer trays. The freeze dryer trays were transferred into freeze dry chamber and vial probe was positioned (Lyostar II; FTS Kinetics). Lyophilization was performed using the lyophilization cycle listed below. After lyophilization cycle finished, the vials were back filled with N2 and the stopper was placed in situ, wiped down with isopropanol in the fume hood once removed from the freeze dryer, reconciled, then crimped. Seven vials out of 186 sample vials placed under the lyophilization cycle had smashed in the freeze dryer.
Sample Preparation—Method B (dissolved oxygen content ≤1 ppm): 2 L WFI was poured into a Schott bottled and degassed for 30 minutes with N2 until dissolved oxygen content was ≤1 ppm (dissolved oxygen meter and probe; Mettler Toledo). 10% Mannitol solution was prepared by adding […] of mannitol and 1000 mL of degassed WFI to a tared 2 L Schott bottle containing a magnetic stirrer and wrapped in aluminum foil. To the Schott bottle containing mannitol, 15 mL of 2M HCl was added and stirred for approximately 10 minutes. The resulting solution was sparged with N2 while stirring until dissolved oxygen content was ≤1 ppm (approx. 30 min). […]

[1] = Method A sample, 2-8° C./ambient % RH, 1 month
[2] = Method A sample, 2-8° C./ambient % RH, 2 months
[3] = Method A sample, 2-8° C./ambient % RH, 3 months
[4] = Method A sample, 2-8° C./ambient % RH, 6 months
[5] = Method A sample, 2-8° C./ambient % RH, 9 months
[6] = Method A sample, 2-8° C./ambient % RH, 12 months
[7] = Method A sample, 2-8° C./ambient % RH, 18 months
[8] = Method A sample, 2-8° C./ambient % RH, 24 months
[9] = Method A sample, 2-8° C./ambient % RH, 36 months
[10] = Method A sample, 2-8° C./ambient % RH, Initial
[11] = Method B sample, 5° C, 3 months
[12] = Method B sample, 5° C, 6 months

Cc1cnc(CNC(=O)c2c(=O)c3ccc(N4CCCN(C)CC4)nc3n3c2sc2ccccc23)cn1 [Compound I, 2-(4-Methyl-[1,4]diazepan-1-yl)-5-oxo-5H-7-thia-1,11b-diaza-benzo[c]fluorene-6-carboxylic acid (5-methyl-pyrazin-2-ylmethyl)-amide]
Appearance [1]: White powder
Appearance (Reconstituted Solution) [1]: Clear, colorless
Compound I by HPLC assay [1]: 101%
Reconstitution Time [1]: 54 s
Related Substances RRT 0.83 [1]: RRT 0.83: 0.41%
Related Substances RRT 0.88 [1]: RRT 0.88: 0.05%
Related Substances RRT 0.95A [1]: RRT 0.95A: 0.10%
Related Substances RRT 0.95B [1]: RRT 0.95B: 0.06%
Related Substances RRT 1.05 [1]: RRT 1.05: 0.18%
Related Substances RRT 1.08 [1]: RRT 1.08: 0.17%
Related Substances Total [1]: Total: 1.0%
Water Content [1]: 0.16%
pH [1]: 4.56
Appearance [2]: White powder
Appearance (Reconstituted Solution) [2]: Clear, colorless
Compound I by HPLC assay [2]: 101%
Reconstitution Time [2]: 55 s
Related Substances RRT 0.88 [2]: RRT 0.88: 0.06%
Related Substances RRT 0.95B [2]: RRT 0.95B: 0.06%
Related Substances RRT 1.05 [2]: RRT 1.05: 0.17%
Related Substances RRT 1.07 [2]: RRT 1.07: 0.15%
Related Substances Total [2]: Total: 0.4%
Water Content [2]: 0.20%
pH [2]: 4.51
Appearance [3]: White powder
Appearance (Reconstituted Solution) [3]: Clear, colorless
Compound I by HPLC assay [3]: 102%
Reconstitution Time [3]: 41 s
Related Substances RRT 0.88 [3]: RRT 0.88: 0.05%
Related Substances RRT 0.95A [3]: RRT 0.95A: 0.05%
Related Substances RRT 0.95B [3]: RRT 0.95B: 0.06%
Related Substances RRT 0.96 [3]: RRT 0.96: 0.06%
Related Substances RRT 1.05 [3]: RRT 1.05: 0.16%
Related Substances RRT 1.07 [3]: RRT 1.07: 0.20%
Related Substances Total [3]: Total: 0.6%
Water Content [3]: 0.16%
pH [3]: 4.45
Appearance [4]: White powder
Appearance (Reconstituted Solution) [4]: Clear, colorless
Compound I by HPLC assay [4]: 100%
Related Substances RRT 0.88 [4]: RRT 0.88: 0.09%
Related Substances RRT 0.89 [4]: RRT 0.89: 0.05%
Related Substances RRT 0.95B [4]: RRT 0.95B: 0.08%
Related Substances RRT 0.96 [4]: RRT 0.96: 0.07%
Related Substances RRT 1.05 [4]: RRT 1.05: 0.17%
Related Substances RRT 1.07 [4]: RRT 1.07: 0.28%
Related Substances Total [4]: Total: 0.7%
Water Content [4]: 0.64%
pH [4]: 4.25
Appearance [5]: White powder
Appearance (Reconstituted Solution) [5]: Clear, colorless
Compound I by HPLC assay [5]: 100%
Related Substances RRT 0.88 [5]: RRT 0.88: 0.06%
Related Substances RRT 0.95B [5]: RRT 0.95B: 0.06%
Related Substances RRT 0.96 [5]: RRT 0.96: 0.05%
Related Substances RRT 0.97 [5]: RRT 0.97: 0.07%
Related Substances RRT 1.05 [5]: RRT 1.05: 0.17%
Related Substances RRT 1.07 [5]: RRT 1.07: 0.27%
Related Substances Total [5]: Total: 0.7%
Water Content [5]: 0.17%
pH [5]: 4.46
Appearance [6]: White powder
Appearance (Reconstituted Solution) [6]: Clear, colorless
Compound I by HPLC assay [6]: 101%
Related Substances RRT 0.88 [6]: RRT 0.88: 0.09%
Related Substances RRT 0.89 [6]: RRT 0.89: 0.07%
Related Substances RRT 0.95B [6]: RRT 0.95B: 0.05%
Related Substances RRT 0.96 [6]: RRT 0.96: 0.10%
Related Substances RRT 0.97 [6]: RRT 0.97: 0.11%
Related Substances RRT 1.05 [6]: RRT 1.05: 0.17%
Related Substances RRT 1.07 [6]: RRT 1.07: 0.45%
Related Substances Total [6]: Total: 1.0%
Water Content [6]: 0.20%
pH [6]: 4.47
Appearance [7]: White powder
Appearance (Reconstituted Solution) [7]: Clear, colorless
Compound I by HPLC assay [7]: 98%
Related Substances RRT 0.88 [7]: RRT 0.88: 0.05%
Related Substances RRT 0.95B [7]: RRT 0.95B: 0.05%
Related Substances RRT 0.96 [7]: RRT 0.96: 0.06%
Related Substances RRT 0.97 [7]: RRT 0.97: 0.07%
Related Substances RRT 1.04 [7]: RRT 1.04: 0.05%
Related Substances RRT 1.05 [7]: RRT 1.05: 0.17%
Related Substances RRT 1.07 [7]: RRT 1.07: 0.20%
Related Substances Total [7]: Total: 0.6%
Water Content [7]: 0.24%
pH [7]: 4.23
Appearance [8]: White powder
Appearance (Reconstituted Solution) [8]: Clear, colorless
Compound I by HPLC assay [8]: 99%
Related Substances RPT 0.88 [8]: RPT 0.88: 0.06%
Related Substances RPT 0.95B [8]: RPT 0.95B: 0.05%
Related Substances RPT 0.96 [8]: RPT 0.96: 0.06%
Related Substances RPT 0.97 [8]: RPT 0.97: 0.08%
Related Substances RRT 0.89 [8]: RRT 0.89: 0.05%
Related Substances RRT 1.05 [8]: RRT 1.05: 0.17%
Related Substances RRT 1.07 [8]: RRT 1.07: 0.29%
Related Substances Total [8]: Total: 0.8%
Water Content [8]: 0.21%
pH [8]: 4.37
Appearance [9]: White powder
Appearance (Reconstituted Solution) [9]: Clear, colorless
Compound I by HPLC assay [9]: 101%
Related Substances RRT 0.88 [9]: RRT 0.88: 0.06%
Related Substances RRT 0.96 [9]: RRT 0.96: 0.06%
Related Substances RRT 0.97 [9]: RRT 0.97: 0.06%
Related Substances RRT 1.05 [9]: RRT 1.05: 0.18%
Related Substances RRT 1.07 [9]: RRT 1.07: 0.24%
Related Substances Total [9]: Total: 0.6%
Water Content [9]: 0.28%
pH [9]: 4.48
Appearance [10]: White powder
Appearance (Reconstituted Solution) [10]: Clear, colorless
Compound I by HPLC assay [10]: 101.5%
Related Substances RRT 1.05 [10]: RRT 1.05: 0.18%
Related Substances RRT 1.06 [10]: RRT 1.06: 0.08%
Related Substances RRT 1.08 [10]: RRT 1.08: 0.06%
Related Substances Total [10]: Total: 0.3%
Water Content [10]: 0.14%
pH [10]: 4.45
Appearance (Method B sample, 5° C, 1 month): White powder
Appearance (Reconstituted Solution) (Method B sample, 5° C, 1 month): Clear, colorless
Compound I by HPLC assay (Method B sample, 5° C, 1 month): 99.5%
Reconstitution Time (Method B sample, 5° C, 1 month): 60 s
Related Substances RRT 1.06 (Method B sample, 5° C, 1 month): RRT 1.06: 0.16%
Related Substances RRT 1.08 (Method B sample, 5° C, 1 month): RRT 1.08: 0.06%
Related Substances RRT 1.22 (Method B sample, 5° C, 1 month): RRT 1.22: 0.05%
Related Substances Total (Method B sample, 5° C, 1 month): Total: 0.3%
Water Content USP<921 Method 1c> (Method B sample, 5° C, 1 month): 1.51%
pH (USP<791>) (Method B sample, 5° C, 1 month): 4.4
Appearance [11]: Off-white powder
Appearance (Reconstituted Solution) [11]: Clear, colorless
Compound I by HPLC assay [11]: 101.2%
Related Substances RRT 0.17 [11]: RRT 0.17: 0.05%
Related Substances RRT 1.04 [11]: RRT 1.04: 0.08%
Related Substances RRT 1.05 [11]: RRT 1.05: 0.19%
Related Substances Total [11]: Total: 0.3%
Water Content USP<921 Method 1c> [11]: 1.19%
pH (USP<791>) [11]: 4.5
Appearance [12]: Off-white powder
Appearance (Reconstituted Solution) [12]: Clear, colorless
Compound I by HPLC assay [12]: 100.7%
Related Substances RRT 1.05 [12]: RRT 1.05: 0.13%
Related Substances Total [12]: Total: 0.1%
Water Content USP<921 Method 1c> [12]: 1.25%
pH (USP<791>) [12]: 4.5
Appearance (Method B sample, 5° C, Initial): White powder
Appearance (Reconstituted Solution) (Method B sample, 5° C, Initial): Clear, colorless
Compound I by HPLC assay (Method B sample, 5° C, Initial): 100.2%
Related Substances RRT 0.96 (Method B sample, 5° C, Initial): RRT 0.96: 0.05%
Related Substances RRT 1.04 (Method B sample, 5° C, Initial): RRT 1.04: 0.05%
Related Substances RRT 1.06 (Method B sample, 5° C, Initial): RRT 1.06: 0.17%
Related Substances RRT 1.08 (Method B sample, 5° C, Initial): RRT 1.08: 0.06%
Related Substances Total (Method B sample, 5° C, Initial): Total:0.3%
Water Content USP<921 Method 1c> (Method B sample, 5° C, Initial): 1.12%
